Measured values from PubChem BioAssay AID1963425 (Molecular Pharmacology Branch, DTP, NCI, 2024).
pIC50: −log10 of the molar value. Blank lines part the entries; values can stand above or below the compound they belong to.

Tested on: 323965-272-R-J2-PDC complex spheroid growth, % test/control
Assay: Anticancer human tumor 323965-272-R-J2-PDC patient-derived pancreatic carcinoma cell line growth inhibition [Asc]
Settings: for pIC50: curve of first compound; for viability, T/C: stronger effect = lower value
How it was run: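 Tumor cells were grown as multicellular spheroids with stromal HUVEC and mesenchymal stem cells and treated singly or in combination. Concentrations fell in half-log steps from the clinical Cmax, or from 10 microM where none was known.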

[1] = second compound 0.0316 µM, first compound 0.00316 µM
[2] = second compound 0.0316 µM, first compound 0.01 µM
[3] = second compound 0.0316 µM, first compound 0.0316 µM
[4] = second compound 0.0316 µM, first compound 0.1 µM
[5] = second compound 0.1 µM, first compound 0.00316 µM
[6] = second compound 0.1 µM, first compound 0.01 µM
[7] = second compound 0.1 µM, first compound 0.0316 µM
[8] = second compound 0.1 µM, first compound 0.1 µM
[9] = second compound 0.316 µM, first compound 0.00316 µM
[10] = second compound 0.316 µM, first compound 0.01 µM
[11] = second compound 0.316 µM, first compound 0.0316 µM
[12] = second compound 0.316 µM, first compound 0.1 µM
[13] = second compound 1 µM, first compound 0.00316 µM
[14] = second compound 1 µM, first compound 0.01 µM
[15] = second compound 1 µM, first compound 0.0316 µM
[16] = second compound 1 µM, first compound 0.1 µM
[17] = second compound 3.16 µM, first compound 0.00316 µM
[18] = second compound 3.16 µM, first compound 0.01 µM
[19] = second compound 3.16 µM, first compound 0.0316 µM
[20] = second compound 3.16 µM, first compound 0.1 µM
[21] = second compound 10 µM, first compound 0.00316 µM
[22] = second compound 10 µM, first compound 0.01 µM
[23] = second compound 10 µM, first compound 0.0316 µM
[24] = second compound 10 µM, first compound 0.1 µM
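Also: compound exposure lasted 7 days starting three days after spheroid seeding.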
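For viability, T/C in this document: 100% = DMSO vehicle control wells with viability set relative to vehicle.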

- pIC50 (second compound 0.0316 µM): < 6.00
- pIC50 (second compound 0.1 µM): < 6.00
- pIC50 (second compound 0.316 µM): < 6.00
- pIC50 (second compound 1 µM): < 6.00
- pIC50 (second compound 3.16 µM): < 6.00
- pIC50 (second compound 10 µM): < 6.00
SMILES: CCN1CCN(Cc2ccc(Nc3ncc(F)c(-c4cc(F)c5nc(C)n(C(C)C)c5c4)n3)nc2)CC1 + Cc1c(S(C)(=O)=O)c(-c2cc(F)cc(N3CCN(c4ccc(NS(=O)(=O)c5ccc(NC(CCN6CCC(C(=O)OCCCP(=O)(O)O)CC6)CSc6ccccc6)c(S(=O)(=O)C(F)(F)F)c5)cc4)CC3)c2)c(-c2ccc(Cl)cc2)n1C(C)C
- viability, T/C [1]: 110%
- viability, T/C [2]: 98.8%
- viability, T/C [3]: 106%
- viability, T/C [4]: 90.4%
- viability, T/C (second compound 0.0316 µM, first compound 0.316 µM): 70.5%
- viability, T/C (second compound 0.0316 µM, first compound 1 µM): 67.7%
- viability, T/C [5]: 102%
- viability, T/C [6]: 109%
- viability, T/C [7]: 95.1%
- viability, T/C [8]: 82.5%
- viability, T/C (second compound 0.1 µM, first compound 0.316 µM): 70.7%
- viability, T/C (second compound 0.1 µM, first compound 1 µM): 73.6%
- viability, T/C [9]: 103%
- viability, T/C [10]: 102%
- viability, T/C [11]: 100%
- viability, T/C [12]: 81%
- viability, T/C (second compound 0.316 µM, first compound 0.316 µM): 72.5%
- viability, T/C (second compound 0.316 µM, first compound 1 µM): 78.1%
- viability, T/C [13]: 102%
- viability, T/C [14]: 93.1%
- viability, T/C [15]: 84.2%
- viability, T/C [16]: 76.6%
- viability, T/C (second compound 1 µM, first compound 0.316 µM): 72.8%
- viability, T/C (second compound 1 µM, first compound 1 µM): 70.3%
- viability, T/C [17]: 83.9%
- viability, T/C [18]: 86.2%
- viability, T/C [19]: 77.8%
- viability, T/C [20]: 65.8%
- viability, T/C (second compound 3.16 µM, first compound 0.316 µM): 67.5%
- viability, T/C (second compound 3.16 µM, first compound 1 µM): 61.2%
- viability, T/C [21]: 76.4%
- viability, T/C [22]: 74.4%
- viability, T/C [23]: 64.1%
- viability, T/C [24]: 66.5%
- viability, T/C (second compound 10 µM, first compound 0.316 µM): 71.3%
- viability, T/C (second compound 10 µM, first compound 1 µM): 70.3%

- pIC50 (second compound 0.0316 µM): < 7.00
- pIC50 (second compound 0.1 µM): < 7.00
- pIC50 (second compound 0.316 µM): < 7.00
- pIC50 (second compound 1 µM): < 7.00
- pIC50 (second compound 3.16 µM): < 7.00
- pIC50 (second compound 10 µM): < 7.00
SMILES: Cn1ncnc1[C@H]1c2n[nH]c(=O)c3cc(F)cc(c23)N[C@@H]1c1ccc(F)cc1 + Cc1c(S(C)(=O)=O)c(-c2cc(F)cc(N3CCN(c4ccc(NS(=O)(=O)c5ccc(NC(CCN6CCC(C(=O)OCCCP(=O)(O)O)CC6)CSc6ccccc6)c(S(=O)(=O)C(F)(F)F)c5)cc4)CC3)c2)c(-c2ccc(Cl)cc2)n1C(C)C
- viability, T/C (second compound 0.0316 µM, first compound 0.000316 µM): 105%
- viability, T/C (second compound 0.0316 µM, first compound 0.001 µM): 92.2%
- viability, T/C [1]: 105%
- viability, T/C [2]: 96.2%
- viability, T/C [3]: 95.3%
- viability, T/C [4]: 86.4%
- viability, T/C (second compound 0.1 µM, first compound 0.000316 µM): 86.4%
- viability, T/C (second compound 0.1 µM, first compound 0.001 µM): 102%
- viability, T/C [5]: 97.9%
- viability, T/C [6]: 104%
- viability, T/C [7]: 95.4%
- viability, T/C [8]: 92.7%
- viability, T/C (second compound 0.316 µM, first compound 0.000316 µM): 94.8%
- viability, T/C (second compound 0.316 µM, first compound 0.001 µM): 99.7%
- viability, T/C [9]: 100%
- viability, T/C [10]: 84.2%
- viability, T/C [11]: 96.7%
- viability, T/C [12]: 80.5%
- viability, T/C (second compound 1 µM, first compound 0.000316 µM): 96.5%
- viability, T/C (second compound 1 µM, first compound 0.001 µM): 89.3%
- viability, T/C [13]: 88.8%
- viability, T/C [14]: 87.2%
- viability, T/C [15]: 84.3%
- viability, T/C [16]: 66.5%
- viability, T/C (second compound 3.16 µM, first compound 0.000316 µM): 86.6%
- viability, T/C (second compound 3.16 µM, first compound 0.001 µM): 76.2%
- viability, T/C [17]: 80.3%
- viability, T/C [18]: 75.4%
- viability, T/C [19]: 70%
- viability, T/C [20]: 64.5%
- viability, T/C (second compound 10 µM, first compound 0.000316 µM): 81.5%
- viability, T/C (second compound 10 µM, first compound 0.001 µM): 73.4%
- viability, T/C [21]: 71.8%
- viability, T/C [22]: 69.1%
- viability, T/C [23]: 71.1%
- viability, T/C [24]: 59.6%
